In patent US8017612B2, “Piperazine compound and use thereof as a HCV polymerase inhibitor” (priority 2006, dated 2011) one finds IC50 data, which are given here for 22 compounds.

Structures can show the parent of a compound that is named as a salt.

In test [1] the target is T1, HCV polymerase (NS5B) type 1a (Hepatitis C virus genotype 1a, UniProt P26664).
T1 construct: made in house; host or cells: Escherichia coli (by the 'similar method' of the 1b enzyme)
Briefly: Assay of enzyme (HCV polymerase) inhibitory activity, type 1a enzyme. It is filed as biochemical, HCV type 1a (cloned from the blood of patients). The method in brief: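 Patient-derived type 1a NS5B (C-terminal 47-aa deletion, His-tagged, E. coli-expressed) at 1.5 μg/ml was reacted with 5 μg/ml 3′UTR-containing substrate RNA, 50 μM ATP/GTP/CTP, 2 μM UTP plus [3H]UTP, pH 7.5, 25° C for 60 min. TCA-precipitated RNA radioactivity was counted; IC50 from ± compound.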

The target in test [2] is T2, HCV polymerase (NS5B) type 1b (Hepatitis C virus genotype 1b, UniProt P26663).
T2 construct: a region encoding NS5B (J Virol 1991 March, 65(3), 1105-13, 544 amino acids after deletion of 47 amino acids on the C-terminal); 6xHis (C); made in house; host or cells: Escherichia coli
Briefly: Assay of enzyme (HCV polymerase) inhibitory activity, type 1b enzyme. It is filed as biochemical, HCV BK strain (type 1b). The method in brief: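 NS5B from HCV BK strain (type 1b), C-terminal 47 aa deleted, C-terminal His6-tagged, E. coli-expressed, 0.5 μg/ml, with ~450 nt substrate RNA carrying the 3′ UTR (polyU, 3′X) at 5 μg/ml. Incubation 60 min at 25 °C with 50 μM ATP/GTP/CTP, 2 μM UTP plus [3H]UTP, pH 7.5 Tris.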

Setting [3] is: HCV polymerase inhibitory activity (IC50), 1a, type 1a enzyme 1.5 μg/ml, 25° C., 60 min.
The mark [4] stands for this setting: HCV polymerase inhibitory activity (IC50), 1b, type 1b enzyme 0.5 μg/ml, 25° C., 60 min.
Where [5] appears, read: HCV polymerase inhibitory activity IC50, 1a, type 1a enzyme.
[6] abbreviates: HCV polymerase inhibitory activity IC50, 1b, type 1b enzyme.

For the compound `CC(C)c1ccc(CNC(=O)[C@H]2CN(C(=O)Cc3cccnc3)CCN2S(=O)(=O)c2ccc(C(F)(F)F)cc2)cc1` [Example 175, (R)-4-(2-pyridin-3-yl-acetyl)-1-(4-trifluoromethyl-benzenesulfonyl)-piperazine-2-carboxylic acid 4-isopropyl-benzylamide], the IC50 in test [1] (setting [3]) and in test [2] (setting [4]) was 100 to 1000 nM in each case.
As for `CC(=O)N1CCN(S(=O)(=O)c2ccc(N)cc2)C(C(=O)NCc2ccc(C(F)(F)F)cc2)C1` (centres unmarked) [Example 93, 4-acetyl-1-(4-amino-benzenesulfonyl)-piperazine-2-carboxylic acid 4-trifluoromethyl-benzylamide hydrochloride], the half-maximal inhibitory concentration (IC50) in test [1] (setting [3]) and in test [2] (setting [4]) was > 1000 nM each time.
`CCCc1ccc(CNC(=O)[C@H]2CN(c3nc(C)c(C(=O)C(=O)O)s3)CCN2S(=O)(=O)c2ccc(OC(F)(F)F)cc2)cc1` [Example 848, {4-methyl-2-[(R)-3-(4-propyl-benzylcarbamoyl)-4-(4-trifluoromethoxy-benzenesulfonyl)-piperazin-1-yl]-thiazol-5-yl}-oxo-acetic acid]: the half-maximal inhibitory concentration (IC50) in test [1] (setting [5]) and in test [2] (setting [6]) was < 100 nM throughout.
For `CC(=O)N1CCN(S(=O)(=O)c2ccc(C(C)C)cc2)[C@@H](C(=O)NCc2ccc(C(C)(F)F)cc2)C1` [Example 293, (R)-4-acetyl-1-(4-isopropyl-benzenesulfonyl)-piperazine-2-carboxylic acid 4-(1,1-difluoro-ethyl)-benzylamide], the concentration for half-maximal inhibition (IC50) in test [1] (setting [3]) and in test [2] (setting [4]) was 100 to 1000 nM in each case.
As to `CC(=O)N1CCN(S(=O)(=O)c2ccc(C(C)C)cc2)C(C(=O)NCc2ccc([N+](=O)[O-])cc2)C1` (centres unmarked) [Example 77, 4-acetyl-1-(4-isopropyl-benzenesulfonyl)-piperazine-2-carboxylic acid 4-nitro-benzylamide], the concentration for half-maximal inhibition (IC50) in test [1] (setting [3]) and in test [2] (setting [4]) was > 1000 nM in each case.
With `CCCc1ccc(CNC(=O)[C@H]2CN(c3cnc(C(=O)OC)c(N)n3)CCN2S(=O)(=O)c2ccc(OC(F)(F)F)cc2)cc1` [Example 507, (R)-6′-amino-3-(4-propyl-benzylcarbamoyl)-4-(4-trifluoromethoxy-benzenesulfonyl)-3,4,5,6-tetrahydro-2H-[1,2′]bipyrazinyl-5′-carboxylic acid methyl ester], the 50% inhibitory concentration (IC50) in test [1] (setting [3]) and in test [2] (setting [4]) was < 100 nM each time.
As to `CCCc1ccc(CNC(=O)[C@H]2CN(c3cnc(C(=O)O)cn3)CCN2S(=O)(=O)c2ccc3c(c2)CCCCC3)cc1` [Example 435, (R)-3-(4-propyl-benzylcarbamoyl)-4-(6,7,8,9-tetrahydro-5H-benzenecycloheptene-2-sulfonyl)-3,4,5,6-tetrahydro-2H-[1,2′]bipyrazinyl-5′-carboxylic acid], the half-inhibitory concentration (IC50) in test [1] (setting [3]) and in test [2] (setting [4]) was < 100 nM throughout.
As to `CC(C)c1ccc(S(=O)(=O)N2CCN(c3nc(C(=O)O)cs3)CC2C(=O)NCc2ccc(C(F)(F)F)cc2)cc1` (centres unmarked) [Example 171, 2-[4-(4-isopropyl-benzenesulfonyl)-3-(4-trifluoromethyl-benzylcarbamoyl)-piperazin-1-yl]-thiazole-4-carboxylic acid], the half-maximal inhibitory concentration (IC50) in test [1] (setting [3]) and in test [2] (setting [4]) was > 1000 nM each time.
Regarding `CC(C)c1ccc(CNC(=O)[C@H]2CN(C(=O)Nc3ccncn3)CCN2S(=O)(=O)c2ccc(C(F)(F)F)cc2)cc1` [Example 300, (R)-4-(4-trifluoromethyl-benzenesulfonyl)-piperazine-1,3-dicarboxylic acid 3-(4-isopropyl-benzylamide) 1-pyrimidin-4-ylamide], the half-maximal inhibitory concentration (IC50) in test [1] (setting [3]) and in test [2] (setting [4]) was < 100 nM in each case.
For the compound `O=C(NCc1ccc(OC(F)(F)F)cc1)[C@H]1CN(c2cnc3cncnc3n2)CCN1S(=O)(=O)c1ccc(C(F)(F)F)cc1` [Example 791, (R)-4-pteridin-7-yl-1-(4-trifluoromethyl-benzenesulfonyl)-piperazine-2-carboxylic acid 4-trifluoromethoxy-benzylamide], the half-maximal inhibitory concentration (IC50) in test [1] (setting [5]) and in test [2] (setting [6]) was < 100 nM throughout.
With `CC(=O)N1CCN(S(=O)(=O)c2ccc(C(C)(C)C)cc2)[C@@H](C(=O)NCc2ccc(C(C)C)cc2)C1` [Example 208, (R)-4-acetyl-1-(4-tert-butyl-benzenesulfonyl)-piperazine-2-carboxylic acid 4-isopropyl-benzylamide], the IC50 in test [1] (setting [3]) and in test [2] (setting [4]) was < 100 nM throughout.
For `CC(=O)N1CCN(S(=O)(=O)c2ccc(OC(F)(F)F)cc2)[C@@H](C(=O)NCCCc2ccc(O)cc2)C1` [Example 717, (R)-4-acetyl-1-(4-trifluoromethoxy-benzenesulfonyl)-piperazine-2-carboxylic acid [3-(4-hydroxy-phenyl)-propyl]-amide], the IC50 in test [1] (setting [5]) and in test [2] (setting [6]) was > 1000 nM in each case.
For the compound `O=C(O)c1cnc(N2CCN(S(=O)(=O)c3ccc(Br)s3)[C@@H](C(=O)NCc3ccc(OC(F)(F)F)cc3)C2)cn1` [Example 787, (R)-4-(5-bromo-thiophene-2-sulfonyl)-3-(4-trifluoromethoxy-benzylcarbamoyl)-3,4,5,6-tetrahydro-2H-[1,2′]bipyrazinyl-5′-carboxylic acid], the IC50 in test [1] (setting [5]) and in test [2] (setting [6]) was < 100 nM each time.
As to `CCCc1ccc(CNC(=O)[C@H]2CN(c3cc(C)c(C(=O)O)nn3)CCN2S(=O)(=O)c2ccc(OC(F)(F)F)cc2)cc1` [Example 487, 4-methyl-6-[(R)-3-(4-propyl-benzylcarbamoyl)-4-(4-trifluoromethoxy-benzenesulfonyl)-piperazin-1-yl]-pyridazine-3-carboxylic acid], the IC50 in test [1] (setting [3]) and in test [2] (setting [4]) was < 100 nM each time.
On to `CCCc1ccc(CNC(=O)[C@H]2CN(c3cnc(C(=O)O)cn3)CCN2S(=O)(=O)c2ccc(-c3ccccc3)cc2)cc1` [Example 701, (R)-4-(biphenyl-4-sulfonyl)-3-(4-propyl-benzylcarbamoyl)-3,4,5,6-tetrahydro-2H-[1,2′]bipyrazinyl-5′-carboxylic acid], for which the IC50 in test [1] (setting [5]) and in test [2] (setting [6]) was < 100 nM in each case.
As to `O=C(NCc1ccc(SC(F)(F)F)cc1)[C@H]1CN(c2cnc3cncnc3n2)CCN1S(=O)(=O)c1ccc(OC(F)(F)F)cc1` [Example 772, (R)-4-pteridin-7-yl-1-(4-trifluoromethoxy-benzenesulfonyl)-piperazine-2-carboxylic acid 4-trifluoromethylsulfanyl-benzylamide], the concentration for half-maximal inhibition (IC50) in test [1] (setting [5]) and in test [2] (setting [6]) was < 100 nM throughout.
As for `CC(C)c1ccc(CNC(=O)[C@H]2CN(C(=O)CNCC(=O)O)CCN2S(=O)(=O)c2ccc(C(F)(F)F)cc2)cc1` [Example 384, {2-[(R)-3-(4-isopropyl-benzylcarbamoyl)-4-(4-trifluoromethyl-benzenesulfonyl)-piperazin-1-yl]-2-oxo-ethylamino}-acetic acid hydrochloride], the half-maximal inhibitory concentration (IC50) in test [1] (setting [3]) and in test [2] (setting [4]) was 100 to 1000 nM each time.
Consider `O=C(NCC12CC3CC(CC(C3)C1)C2)[C@H]1CN(c2cnc3cncnc3n2)CCN1S(=O)(=O)c1ccc(OC(F)(F)F)cc1` [Example 804, (R)-4-pteridin-7-yl-1-(4-trifluoromethoxy-benzenesulfonyl)-piperazine-2-carboxylic acid (adamantan-1-ylmethyl)-amide], for which the concentration for half-maximal inhibition (IC50) in test [1] (setting [5]) and in test [2] (setting [6]) was > 1000 nM throughout.
`CN(C)c1ccc(CNC(=O)[C@H]2CN(C(=O)CN)CCN2S(=O)(=O)c2ccc(C(F)(F)F)cc2)cc1` [Example 262, (R)-4-(2-amino-acetyl)-1-(4-trifluoromethyl-benzenesulfonyl)-piperazine-2-carboxylic acid 4-dimethylamino-benzylamide dihydrochloride]: the IC50 in test [1] (setting [3]) and in test [2] (setting [4]) was > 1000 nM in each case.
With `CCCc1ccc(CNC(=O)[C@H]2CN(c3nc4cn[nH]c(=O)c4s3)CCN2S(=O)(=O)c2ccc([N+](=O)[O-])cc2)cc1` [Example 825, (R)-1-(4-nitro-benzenesulfonyl)-4-(7-oxo-6,7-dihydro-thiazolo[4,5-d]pyridazin-2-yl)-piperazine-2-carboxylic acid 4-propyl-benzylamide], the IC50 in test [1] (setting [5]) and in test [2] (setting [6]) was < 100 nM throughout.
For `Cc1nc(N2CCN(S(=O)(=O)c3ccc(OC(F)(F)F)cc3)[C@@H](C(=O)NCc3ccc(C4CC4)cc3)C2)sc1C(=O)O` [Example 383, 2-[(R)-3-(4-cyclopropyl-benzylcarbamoyl)-4-(4-trifluoromethoxy-benzenesulfonyl)-piperazin-1-yl]-4-methyl-thiazole-5-carboxylic acid], the half-maximal inhibitory concentration (IC50) in test [1] (setting [3]) and in test [2] (setting [4]) was < 100 nM throughout.
In the case of `CC(C)c1ccc(CNC(=O)[C@H]2CN(CC(N)=O)CCN2S(=O)(=O)c2ccc(C(F)(F)F)cc2)cc1` [Example 146, (R)-4-carbamoylmethyl-1-(4-trifluoromethyl-benzenesulfonyl)-piperazine-2-carboxylic acid 4-isopropyl-benzylamide], the IC50 (as a rule, the concentration that inhibits the measured activity by half) in test [1] (setting [3]) is > 1000 nM; in test [2] (setting [4]) it was 100 to 1000 nM.
